± gives the expanded uncertainty stated by the source.
Key:
[1] = Crystal; DTA
[2] = molar heat capacity at constant pressure; settings: 290 K; 101.33 kPa; Crystal; Small sample (50 mg) DSC
[3] = Molar enthalpy of transition or fusion; settings: Crystal; DSC
[4] = molar heat capacity at constant pressure; wn = mass fraction of the nth substance listed; settings: 320 K; 96 kPa; Liquid; Small sample (50 mg) DSC; w1 = 0.649

Row | SMILES | Normal melting temperature [1] [°C] | molar heat capacity at constant pressure [2] [J/K/mol] | Molar enthalpy of transition or fusion [3] [kcal/mol] | molar heat capacity at constant pressure [4] [J/K/mol]
1 | O.O.O.O.O.O.[Br-].[Br-].[Ca+2] [calcium bromide hexahydrate] | 34.00 ± 2 | 363.41 ± 37 | 10.5 ± 0.335 | –
2 | [Br-].[Br-].[Ca+2] [calcium bromide] + O | – | – | – | 75.67 ± 7.5

From the NIST ThermoML archive (doi:10.1016/j.tca.2015.03.027)
